{"source": "patent US7186751B2", "about": "“Injectable composition of paclitaxel” (priority 2001, dated 2007)", "key": {"rat [1]": {"test_system": "rat", "settings": "cited from earlier work"}, "rat [2]": {"test_system": "rat", "settings": "ratio of LD50 in rat", "text": "The common stabilizer has danger in the safety in case of excessive use."}}, "data": [{"compound": "CC(=O)N[C@@H](CS)C(=O)O", "note": "[N-acetyl cysteine]", "values": [{"measurement": "LD50", "setting": "rat [1]", "result": 3600, "unit": "mg/kg"}, {"measurement": "Lower toxicity than citric acid", "setting": "rat [2]", "result": 90, "unit": "times"}]}]}
